Experimental data as given in ChEMBL document CHEMBL5584234, “Small molecules that regulate the N6-methyladenosine RNA modification as potential anti-cancer agents” (Eur J Med Chem, 2024).
Counter-ions that a name gives are not always drawn. One block for each compound: values may come before it.

What was measured:
[1] = test system: ECa-109 cell line; experiment: cells; settings: Homo sapiens, ECa-109, 72 h
[2] = target: T1, N6-adenosine-methyltransferase catalytic subunit (Homo sapiens, UniProt Q86U44)
[3] = target: T1, N6-adenosine-methyltransferase catalytic subunit; remark: listed apart in the source
[4] = test system: Huh-7; experiment: cells; settings: Homo sapiens
[5] = target: T1, N6-adenosine-methyltransferase catalytic subunit; remark: listed apart in the source
[6] = target: T1, N6-adenosine-methyltransferase catalytic subunit; remark: listed apart in the source
[7] = target: T2, Alpha-ketoglutarate-dependent dioxygenase FTO (Homo sapiens, UniProt Q9C0B1)
[8] = target: T3, METTL3/METTL14 (Homo sapiens, UniProt Q86U44)
[9] = target: RNA demethylase ALKBH5 (Homo sapiens, UniProt Q6P6C2)
[10] = target: T2, Alpha-ketoglutarate-dependent dioxygenase FTO; remark: listed apart in the source
[11] = target: T2, Alpha-ketoglutarate-dependent dioxygenase FTO; remark: listed apart in the source
[12] = target: T3, METTL3/METTL14; remark: listed apart in the source
[13] = target: T3, METTL3/METTL14; remark: listed apart in the source
[14] = test system: OCI-AML2; experiment: cells; settings: Homo sapiens
[15] = target: N(6)-adenosine-methyltransferase catalytic subunit METTL3 (Mus musculus, UniProt Q8C3P7)
[16] = target: YTH domain-containing protein 1 (Homo sapiens, UniProt Q96MU7)
[17] = cells; settings: Homo sapiens, AML1
[18] = test system: HeLa; experiment: cells; settings: Homo sapiens, 24 h

- IC50 [1]: 830 nM
SMILES: COc1c(C)cnc(Cn2cc(CNC(=O)c3c(F)c(F)c(F)c(F)c3F)nn2)c1C

- IC50 [2]: < 10 nM
- IC50 [3]: < 10 nM
- GI50 [4]: < 1000 nM
- IC50 [5]: < 1000 nM
SMILES: CCc1cc(N(C)CCOC)c2ccc(CCc3cncc(-n4cc(-c5ccn(C)n5)c5c(N)ncnc54)c3)cc2n1

- IC50 [6]: 4000 nM
- IC50 [3]: 2810 nM
- GI50 [4]: 14600 nM
- IC50 [5]: 4000 nM
SMILES: O=C(O)c1ccccc1OCCc1cn(-c2ccc(-c3c(Cl)cccc3Cl)cc2)c2ccc(-c3ccc(F)cc3)cc12

- IC50 [2]: 7000 nM
SMILES: CCOC(=O)c1ccccc1Nc1c(Cl)ccc(C)c1Cl

- IC50 [7]: 1500 nM
SMILES: CC(=O)Oc1cccc2c1C(=O)c1c(OC(C)=O)cc(C(=O)O)cc1C2=O [DIACEREIN]

- IC50 [8]: 8 nM
SMILES: CC1(C)CCN(Cc2ccc3nc(Cn4cc(-c5cc(Br)cc6[nH]ncc56)nn4)cn3c2)CC1

- IC50 [9]: 10000 nM
SMILES: CCCc1c(C)nc2c3ccccc3oc(=S)n12

- IC50 [10]: 640 nM
SMILES: O=C(O)c1ccccc1-c1c2cc(Cl)c(=O)cc-2oc2cc(O)c(Cl)cc12

- IC50 [7]: 13800 nM
SMILES: N=C(N)c1ccc2cc(OC(=O)c3ccc(N=C(N)N)cc3)ccc2c1 [NAFAMOSTAT MESYLATE]

- IC50 [11]: 3400 nM
SMILES: COc1ncc(-c2ccc3sc(N)nc3c2)cn1

- IC50 [12]: 25 nM
- GI50 [4]: 210 nM
- IC50 [8]: < 5 nM
SMILES: Clc1cc(-c2cn(Cc3cn4cc(CNCC5CCC5)ccc4n3)nn2)c2cn[nH]c2c1

- GI50 [4]: 24800 nM
- IC50 [13]: 1300 nM
SMILES: Nc1ncnc2c1ncn2[C@@H]1O[C@H](C[C@@H](N)CC[C@H](N)C(=O)O)[C@@H](O)[C@H]1O [SINEFUNGIN]

- GI50 [4]: 160 nM
- IC50 [8]: < 5 nM
SMILES: COc1cc(-c2cn(Cc3cn4cc(CNCC5CCC5)ccc4n3)nn2)c2cn[nH]c2c1

- IC50 [2]: 8000 nM
SMILES: Cc1ccc(Cl)c(Nc2ccccc2C(=O)O)c1Cl [MECLOFENAMIC ACID]

- IC50 [13]: 520 nM
SMILES: Nc1ncnc2c1ncn2[C@@H]1O[C@H](CSCC[C@H](N)C(=O)O)[C@@H](O)[C@H]1O [S-ADENOSYLHOMOCYSTEINE]

SMILES: C(=N\NC1=NCCN1)/c1c2ccccc2c(/C=N/NC2=NCCN2)c2ccccc12 [BISANTRENE]
- IC50 [14]: 100 nM

- IC50 [15]: 2810 nM
- GI50 [4]: 600 nM
SMILES: O=C(NCc1cn2cc(CNCC3CCCCC3)ccc2n1)c1cc(=O)n2ccccc2n1

- IC50 [11]: 133000 nM
SMILES: O=C(O)CC[C@@H](O)C(=O)O

SMILES: O=c1c2ccccc2[se]n1-c1ccccc1 [EBSELEN]
- IC50 [16]: 1600 nM

SMILES: O=C(O)[C@H]1O[C@@H](Oc2cc3oc(-c4ccc(O)cc4)cc(=O)c3c(O)c2O)[C@H](O)[C@@H](O)[C@@H]1O [SCUTELLARIN]
- IC50 [8]: 19900 nM

SMILES: Cc1noc(C)c1-c1cc(Cl)c(Nc2ccccc2C(=O)O)c(Cl)c1
- GI50 [17]: 23000 nM

- IC50 [7]: 1500 nM
SMILES: Nc1ncnc2c1ncn2[C@@H]1O[C@H](C(=O)NCCCNC(=O)c2ccccn2)[C@@H](O)[C@H]1O

SMILES: Cc1noc(C)c1-c1cc(Cl)c(Nc2ccccc2C(=O)NO)c(Cl)c1
- GI50 [17]: 800 nM

- IC50 [14]: 200 nM
SMILES: Cc1c(-c2ccc(-c3ccccc3F)cc2)nc2ccc(F)cc2c1C(=O)O [BREQUINAR]

SMILES: Cn1ccc(-c2cn([C@@H]3O[C@H](COc4ccc5ccc(N6CCC6)nc5c4)[C@@H](O)[C@@H]3F)c3ncnc(N)c23)n1
- IC50 [2]: < 10 nM
- IC50 [3]: < 10 nM
- GI50 [4]: < 1000 nM
- IC50 [5]: < 1000 nM

- IC50 [18]: 8700 nM
SMILES: CCS(=O)(=O)Nc1oc(-c2ccc(Cl)cc2)c(O)c1O
